Data from patent publication US8623909B2, “Prophylactic/therapeutic agents for lifestyle-related diseases” (priority 2008, dated 2014).
Marks after values point to notes of the source that are not given here.

Columns and labels:
GFP-AR [1] = target: T1, GFP-AR (Homo sapiens, UniProt P10275); assay: Subnuclear localization of GFP-AR in LNCaP cells; assay type: cell-based; parameters: expressed in transfected cells; host or cells: LNCaP cells; conditions: 10^−5 M, observed 3 hours later, FIG. 2
T1 sequence (P10275 1-920): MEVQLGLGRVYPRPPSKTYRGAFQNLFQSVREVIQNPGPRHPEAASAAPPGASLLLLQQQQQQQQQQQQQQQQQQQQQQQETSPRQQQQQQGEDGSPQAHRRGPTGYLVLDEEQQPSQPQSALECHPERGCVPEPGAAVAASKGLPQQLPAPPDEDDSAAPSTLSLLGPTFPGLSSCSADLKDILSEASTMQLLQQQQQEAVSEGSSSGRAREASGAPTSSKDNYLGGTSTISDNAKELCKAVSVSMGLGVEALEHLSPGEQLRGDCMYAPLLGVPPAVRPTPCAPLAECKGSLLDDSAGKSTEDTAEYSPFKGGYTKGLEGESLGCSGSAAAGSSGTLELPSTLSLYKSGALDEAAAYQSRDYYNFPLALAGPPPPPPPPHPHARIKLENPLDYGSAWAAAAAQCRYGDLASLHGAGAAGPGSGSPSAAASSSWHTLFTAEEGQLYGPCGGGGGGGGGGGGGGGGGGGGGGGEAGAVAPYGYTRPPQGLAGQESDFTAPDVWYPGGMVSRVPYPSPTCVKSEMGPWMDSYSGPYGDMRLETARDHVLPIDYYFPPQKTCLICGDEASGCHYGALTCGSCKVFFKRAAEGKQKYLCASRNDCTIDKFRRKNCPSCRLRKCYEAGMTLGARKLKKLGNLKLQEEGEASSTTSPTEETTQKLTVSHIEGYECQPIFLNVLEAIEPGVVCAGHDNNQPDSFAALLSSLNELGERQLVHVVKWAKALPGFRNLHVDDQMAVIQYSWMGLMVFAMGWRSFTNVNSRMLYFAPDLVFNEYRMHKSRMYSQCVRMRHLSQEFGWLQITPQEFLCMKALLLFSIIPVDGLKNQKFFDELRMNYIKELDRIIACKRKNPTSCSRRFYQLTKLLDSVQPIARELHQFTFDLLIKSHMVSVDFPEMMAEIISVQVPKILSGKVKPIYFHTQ

ORX rats = assay: Total plasma adiponectin level in ORX rats; assay type: in vivo, rat; conditions: for Plasma adiponectin concentration: solvent 2.2, sham 1.3
Procedure: 11-week-old, male Sprague-Dawley (SD) rats (320 to 340 g, purchased from Charles River Japan) were housed for 1 week in a room maintained at a light-dark cycle of 12 hours per day and controlled at a set temperature and humidity while allowing free access to a commercially available standard rodent diet and water.
After housing the animals, the animals were anesthetized with ether, and underwent bilateral orchiectomy (orchiectomized rats: ORX) or a sham treatment. After awaking from the anesthesia, the animals were assigned to test groups of 3 to 5 animals each. Starting on the day after surgery, the animals were subcutaneously injected once a day with an injection solution of the test compound (prepared by dissolving the test compound in a small amount of DMSO and diluting with olive oil for animal testing (consisting of 95% olive oil and 5% DMSO)) at the rate of 0.1 ml/100 g of body weight. After 21 days, the rats were sacrificed by exsanguination from the abdominal artery, the ventral prostates and anal levator muscle were excised and weighed followed by immersing in RNAlater (Nacalai Tesque) for extraction of RNA. In addition, soft tissue was removed from the right femur, and immersed in 75% ethanol followed by storage for subsequent measurement of the bone mineral density. Moreover, liver and visceral fat tissue were collected and immersed in RNAlater for RNA extraction.
The inventors of the present invention measured total plasma adiponectin levels in ORX rats treated in the aforementioned section (4)-1). Plasma insulin levels were also measured simultaneously.

B6 mice on high-fat diet [2] = assay: Glucose tolerance test in high-fat diet B6 mice; assay type: in vivo, mouse; conditions: high-fat diet mice after 16 weeks, glucose 1 g/kg
Procedure: (§1) 9-week-old B6 mice were divided into a control group, high-fat diet group and high-fat diet+compound of formula (Ia) group of 10 animals each, and housed and observed for 16 weeks. During this period, the compound of formula (Ia) was subcutaneously injected at 10 mg/kg every other day, body weights were measured once a week, and food intake was measured once every 4 weeks.
In addition, glucose tolerance tests were also carried out on the mice after housing for 16 weeks. The mice were divided into groups of 5 mice each, injected at 1 g/kg, and glucose value was then measured over time.

[3] = system: UCP-1 mRNA in NIH-3T3-L1 cells; assay: UCP-1 mRNA expression level in NIH-3T3-L1 cells (real-time PCR); assay type: cell-based, mouse; conditions: 10^−5M, 24 hours, control (DMSO) 1.0
Procedure: (§2) 1) Extraction of Total RNA
(§3) After respectively culturing the LNCaP cells and NIH-3T3-L1 cells co-transfected in 1) to 3) above in 6-well plates, the cells were cultured for 24 hours in EMEM or RPMI 1640 containing 10% fetal calf serum treated with dextran-charcoal and a test compound (dissolved in a small amount of DMSO). Subsequently, total RNA was respectively extracted using Isogen (Wako Pure Chemical Industries).
(§4) 5 μg aliquots of each total RNA obtained in 1) above were reverse-transcribed to first strand cDNA using a Superscript III Kit (Invitrogen) and brought to a final volume of 20 μL. Real-time PCR was carried out using LightCycler FastStart DNA Master SYBR Green I (Roche Diagnostic) in order to quantify expression of PSA mRNA in LNCaP cells and UCP-1 mRNA in NIH-3T3-L1 cells. PCR was carried out under the following conditions in 20 μL of reaction mixture: 50 cycles consisting of denaturing for 3 seconds at 95° C., annealing for 10 seconds at 60° C. and elongating for 25 seconds at 72° C. β-actin mRNA was also simultaneously amplified for use as an internal standard. Real-time PCR value for each transcription product were calculated as a relative ratio to β-actin.

B6 mice on high-fat diet [4] = assay: High-fat diet B6 mice, 16 weeks (body weight, serum glucose, serum insulin, food intake, visceral fat); assay type: in vivo, mouse; conditions: 10 mg/kg s.c. every other day
Procedure: as §1
After 16 weeks, the body weights, bone mineral densities, fat distributions and exercise levels of the mice were measured, followed by collecting blood samples and finally sacrificing the animals and collecting their organs. The average value of body weight, serum glucose concentration and serum insulin concentration of each group after 16 weeks are shown in the following Table 17.

PSA mRNA in LNCaP cells = assay: PSA mRNA expression level in LNCaP cells (real-time PCR); assay type: cell-based, human; conditions: 10^−5M, 24 hours, control (DMSO) 1.0
Procedure: as §2, §3, §4

GFP-AR [5] = target: T1, GFP-AR; assay: Subnuclear localization of GFP-AR in NIH-3T3-L1 cells; assay type: cell-based, mouse; parameters: expressed in transfected cells; host or cells: NIH-3T3-L1 cells; conditions: 10^−5 M, FIG. 4

Structure (SMILES): CC(=O)[C@H]1CCC2C3CCc4c(C)cccc4C3CC[C@@]21C (stereo partly shown) [Compound of formula (Ia)]
- GFP-AR nuclear translocation and foci (dots) formation (GFP-AR [1]): clear foci (dots) were not formed
- Plasma adiponectin concentration (ORX rats; 1 mg/Kg): 2.2* μg/mL
- Plasma adiponectin concentration (ORX rats; 10 mg/Kg): 2.1* μg/mL
- Effect on castration-induced increase of plasma adiponectin (in words) (ORX rats; 1 or 10 mg/kg): did not demonstrate such inhibitory activity on the adiponectin levels
- Glucose value in glucose tolerance test (B6 mice on high-fat diet [2]; 0 min after injection): 82.2^## mg/dL
- Glucose value in glucose tolerance test (B6 mice on high-fat diet [2]; 15 min after injection): 293.6 mg/dL
- Glucose value in glucose tolerance test (B6 mice on high-fat diet [2]; 30 min after injection): 327.6* mg/dL
- Glucose value in glucose tolerance test (B6 mice on high-fat diet [2]; 60 min after injection): 249.4 mg/dL
- Glucose value in glucose tolerance test (B6 mice on high-fat diet [2]; 90 min after injection): 262.0* mg/dL
- Glucose value in glucose tolerance test (B6 mice on high-fat diet [2]; 120 min after injection): 163.0 mg/dL
- UCP-1 mRNA (relative ratio to β-actin mRNA) [3]: 2.1*
- Body weight versus high-fat diet group (in words) (B6 mice on high-fat diet [4]; 16 weeks): significantly lower than in the high-fat diet group
- Increase of serum glucose and serum insulin concentrations due to the high-fat diet (in words) (B6 mice on high-fat diet [4]; 16 weeks): significantly inhibited
- Accumulation of visceral fat (in words) (B6 mice on high-fat diet [4]; 16 weeks, FIG. 6): roughly the same as that of the rat of the ordinary diet group
- Serum insulin concentration (average) (B6 mice on high-fat diet [4]; after 16 weeks, high-fat diet alone 0.46, ordinary diet 0.13): 0.27^# ng/mL
- Body weight (average) (B6 mice on high-fat diet [4]; after 16 weeks, high-fat diet alone 36.6, ordinary diet 30.7): 34.9^### g
- Serum glucose concentration (average) (B6 mice on high-fat diet [4]; after 16 weeks, high-fat diet alone 113.2, ordinary diet 75): 82.2^## mg/dL
- PSA mRNA (relative ratio to β-actin mRNA) (PSA mRNA in LNCaP cells): 0.8
- GFP-AR nuclear translocation and foci (dots) formation (GFP-AR [5]): formed the subnuclear foci (dots)
